Read-outs that look alike come from different tables or passages of the source.
What was measured:
[1] = Solubility test of tacrolimus by visual observation; assay type: physicochemical; conditions: aqueous nanoemulsion BF200 (at least 90% water content), aqueous with cosolvent or surfactant or cyclodextrin
Method: Tacrolimus was dissolved by mechanical techniques (stirring). Determination of a complete solution of substance was based on visual observation. A complete dissolution was defined as a clear solution with no signs of cloudiness or precipitation. The pure solvents were used as reference.
Samples were prepared as explained in Example D. The compound was dissolved in 10 mM Phosphate buffer (TC2) at defined concentration (see table below). For samples TC3, TC4 and TC5 the lipid phase (intermediate) of nanoemulsion BF200 was used as solvent. In a first step, Tacrolimus was dissolved in the lipid phase, followed by the preparation of the nanoemulsion by combining the aqueous phase with the lipid phase (containing Tacrolimus). Samples TC4 and TC5 were stored at 5° C. and 25° C. for a period of 6 months.

[2] = cited from earlier work
[3] = cited from earlier work; remark: listed apart in the source

solubility [1]: ≥ 2000 µg/mL
SMILES: C=CC[C@@H]1/C=C(\C)C[C@H](C)C[C@H](OC)[C@H]2O[C@@](O)(C(=O)C(=O)N3CCCC[C@H]3C(=O)O[C@H](/C(C)=C/[C@@H]3CC[C@@H](O)[C@H](OC)C3)[C@H](C)[C@@H](O)CC1=O)[C@H](C)C[C@@H]2OC [Tacrolimus]
logP [2]: > 3
Stability in aqueous formulations ([3]; 5° C., prior-art aqueous formulations (suspensions)): up to 9 months
Stability in aqueous formulations ([3]; room temperature, prior-art aqueous formulations (suspensions)): approx. 3 months
Stability in aqueous formulations ([3]; room temperature, prior-art aqueous formulations): approx. 90 days

Source: patent publication US20260108463A1, “NANOEMULSION FORMULATION WITH IMPROVED TACROLIMUS STABILITY AND SKIN PENETRATION” (BIOFRONTERA BIOSCIENCE GMBH, priority 2023, published 2026)
